What was measured:
[1] = system: dopaminergic progenitor cells; assay: Influence of BP on differentiation of dopaminergic progenitor cells into dopaminergic neurons (cell morphology, inverted microscope); format: cell-based; conditions: FIG. 3
Procedure: (§1) The dopaminergic progenitor cells provided by [Preparation Example B-2] were cultured in the conditional medium provided by [Preparation Example A-2] at 37° C., 5% CO2 for 24 hours. Then, the cells were divided into six groups (see FIGS. 3 and 4), three groups (see FIGS. 5 and 6) and independently subjected to the following treatments: • (1) Control group: cells were continuously cultured in the conditional medium provided by [Preparation Example A-2] […]
To understand the influence of BP on the differentiation of dopaminergic progenitor cells into dopaminergic neurons, the differentiation process of the cells in control group provided by [Preparation Example C] was continuously taken from a JuLI™Br cell imaging analyzer (purchased from NanoEnTek company) (results are shown in FIG. 2), and the cell morphology in each group provided by [Preparation Example C] was taken from and recorded by an inverted microscope (purchased from Nikon company) when the cells were continuously cultured for six days (results are shown in FIG. 3).

dopaminergic neurons = assay: Influence of BP on migration of dopaminergic neurons out from neurospheres (Sox-1/TH/DAPI fluorescent staining); format: cell-based; conditions: FIG. 4
Procedure: as §1
To understand the influence of BP on dopaminergic neurons, when the cells in each group provided by [Preparation Example C] were continuously cultured for ten days, the cells were fixed and then subjected to fluorescent staining with the antibodies including Sox-1 (purchased from Santa Cruz company, product number: SC-17318), TH (tyrosine hydroxylase; purchased from Millipore company, product number: MAB152) and DAPI (diamidino-2-phenylindole; purchased from ThermoFisher Scientific company, product number: D1306), respectively (Sox-1 expresses in dopaminergic progenitor cells, TH expresses in dopaminergic neurons, and DAPI is a nuclear-specific dye). Then, the dopaminergic progenitor cells (green fluorescence), dopaminergic neurons (red fluorescence) and nuclei (blue fluorescence) were observed by an upright fluorescent microscope (purchased from Nikon Company).

CCCC=C1OC(=O)c2ccccc21 [BP, n-butylidenephthalide]
influence on the normal neural differentiation of dopaminergic progenitor cells ([1]; BP 5-100 µM, six days): does not influence
formation of nerve fibers ([1]; BP at 5, 10, 20, 50 and 100 µM in conditional medium (Purmorphamine + FGF-8b), cultured six days): can be observed
phenomenon of dopaminergic neurons migrating out from the neurospheres, comparison among BP concentrations (dopaminergic neurons; BP 50 µM ("BP (50)" group), ten days): most significant
phenomenon of dopaminergic neurons migrating out from the neurospheres, compared to control group (dopaminergic neurons; BP at 5, 10, 20, 50 and 100 µM in conditional medium, cultured ten days): can be observed
